Results from a melting point compilation (Tetko et al.; mined from patent text by program, amines drawn as free bases though some values may be those of a salt).

| melting point | SMILES |
| --- | --- |
| 142 to 143 °C | Cc1ccc(CCN(C)CCCCCC2Cc3cc(O)ccc3C3C(F)CC4(C)C(O)CCC4C23)cc1 (stereo unspecified) |
| 97 to 98.5 °C | CCCCCCCCCCCCCCCCC/C=C1\SC(=O)NC1=O |
| 78 to 80 °C | CCOC(=O)Cc1cccc(Sc2ccccc2Cl)c1[N+](=O)[O-] |
| 59 to 60 °C | Clc1ccc(C2=CCCC2)cn1 |
| 144 °C | CCOC(=O)c1c(C)csc1N/C=C(\C#N)C(=O)OC(C)(C)C |
| 82 to 84 °C | CCCN(CCC)CC1CCn2c(nc3ccccc32)S1 (stereo unspecified) |
| 74.2 to 75 °C | COCCCCCNC(=O)C(c1ccccc1)c1ccccc1 |
| 107 to 113 °C | FC(F)(F)Sc1c(-c2ccc(Cl)cc2)[nH]c(Br)c1Br |
| 176 to 177 °C | O=C(NC1CCCCC1)NS(=O)(=O)c1ccc(CCNC(=O)N2CCC3=C(CCCC3)C2=O)cc1 |
| 138 to 140 °C | CNCC1Cc2cc(C(F)(F)F)cc(-c3cc(F)ccc3F)c2O1 (stereo unspecified) |
| 229 to 232 °C | Nc1ccc(-c2cc3c(Nc4ccc(Cl)cc4F)ncnc3o2)cc1 |
| 144 to 145 °C | CC(C)(C)c1cc(C(=NNc2ccccc2)c2ccccc2)cc(C(C)(C)C)c1O |
| 129 to 131 °C | O=C1C2CCCCC2C(=O)N1c1c(F)cc(F)cc1F (stereo unspecified) |
| 89 to 90 °C | COC(C)(C)CNC(=O)c1cccc(-c2cccc3cc(Cc4cc(F)cc(Cl)c4)sc23)c1 |
| 93 to 95 °C | O=C1NCc2ccccc2C([N+](=O)[O-])N1 (stereo unspecified) |
| 176 to 178 °C | CCOC(=O)Cc1c(C2CCCCC2)nn(-c2ccccc2)c1-c1ccccc1 |
| 135 to 136 °C | C=CCc1c(C(=O)OC)[nH]c2c(C)ccc(C)c12 |
| 97 to 102 °C | COc1ccc(Cl)cc1-c1nccn1-c1ccccc1 |
| > 300 °C | O=C1NCCc2cc(I)ccc21 |
| 81.5 to 82.5 °C | CCOC(=O)c1nc(-c2ccc(F)cc2)c(CCCl)s1 |
| 98 °C | O=C1c2ccccc2C(=O)N1OCCBr |
| 119 to 121 °C | O=C(NC1CCN(CCc2ccccc2)C1)C12CC3CC(CC(C3)C1)C2 (stereo unspecified) |
| 171 °C | Cc1cc(Cc2cc(C(C)(C)C)cc(C(C)(C)C)c2O)c(O)c(-n2nc3ccccc3n2)c1 |
| 120 to 124 °C | CCCCCCCCc1ccc(CCC2(NC(=O)OC(C)(C)C)COC(C)(C)OC2)cc1 |
| 121 to 124 °C | CC(C)(C)n1ncc(OCc2ccc(OCc3ccc(F)cc3)nc2)c(Cl)c1=O |

| melting point | SMILES |
| --- | --- |
| 126 to 128 °C | COc1ccc(C(=O)NCCCN2CCN(C(c3ccccc3)c3ccccc3)CC2)cc1 |
| 79.3 °C | Fc1ccc(Cn2c(OC3CCNCC3)nc3cncnc32)cc1 |
| 106 to 108 °C | NC(=O)c1ccc(CCCNCC(O)c2ccccc2)cc1 (stereo unspecified) |
| 156 to 158 °C | S=C(Nc1cccnc1)N1N=CCC1c1ccccc1 (stereo unspecified) |
| 136 to 138 °C | CCCc1cc(C(O)=S)cc(N)c1Oc1ccccc1 |
| 194 to 196 °C | CN(C)CNS(=O)(=O)c1ccc(-c2cnn(Cc3c(F)c(F)c(F)c(F)c3F)c(=O)c2-c2ccc(F)cc2)cc1 |
| 177 °C | O=C(C=Cc1cccc(S(=O)(=O)NCc2cccc3ccccc23)c1)NO |
| 177 to 179 °C | COc1cccc(CN(CC(=O)O)Cc2ccccc2)c1 |
| 75 to 78 °C | COC(=O)Oc1ccc(F)cc1Br |
| 136 to 138 °C | CCN(CC)CCNC(=O)c1nc2ccc(I)cc2[nH]1 |
| 178 to 180 °C | CSc1cc2c(cc1C(F)(F)F)N(C(=O)Nc1cccc(C(=O)CCCN(C)C)c1)CC2 |
| 259 to 260 °C | Cc1ccc(C(=O)C2=C(O)C(=O)N(c3ccc(C)nn3)C2c2ccc(OC3CCN(C)CC3)cc2)cc1 (stereo unspecified) |
| 104 to 107 °C | COc1cc(N)c(Cl)cc1C(=O)NCC1CCN(CCCCN)CC1 |
| 65 to 66 °C | Cc1cc(S(F)(F)(F)(F)F)ccc1N |
| 171 to 174 °C | Cc1cc(C(=O)O)ccc1-c1ccccc1C(F)(F)F |
| 103 to 105 °C | CCOC(=O)c1nc(C)oc1C(=O)Cl |
| 201 to 205 °C | Nc1ncc2c(n1)-c1ccccc1C(c1ccccc1)=NC2 |
| 70 to 72 °C | CCCC[C@H](NC(=O)[C@H](CC(C)C)NC(=O)OC(C)(C)C)C(=O)CCCc1cccs1 |
| 200 to 202 °C | CCOC(=O)Cn1c(=O)sc2ccc(C3=NNC(=O)NC3C)cc21 (stereo unspecified) |
| 79 to 80.5 °C | CCN(CC)CCOc1cccc2c1c1ccccc1n2Cc1ccccc1 |
| 242 to 243 °C | NC(CC(=O)O)C(=O)N1C(=O)c2ccc(C(=O)O)cc2C1=O (stereo unspecified) |
| 116 to 119 °C | CC1(C)SC2C(NC(c3ccccc3)(c3ccccc3)c3ccccc3)C(=O)N2C1C#N (stereo unspecified) |
| 157 to 158 °C | COc1c(C)c2c(c(O)c1C/C=C(\C)C1CCCC1C(=O)O)C(=O)OC2 (stereo unspecified) |
| 210 °C | C#CCOc1ccc(OC)cc1-c1nc2cnccc2[nH]1 |
| 185 to 187 °C | Cc1ccc2sc3cc(CC(=O)O)ccc3c2c1 |

| melting point | SMILES |
| --- | --- |
| 155 to 156 °C | CS(=O)(=O)c1ccc(-c2nc(SCc3ccccc3)[nH]c2-c2ccc(F)cc2)cc1 |
| 66 °C | O=C(c1ccc(C2=CCCCC2)cc1)N1Cc2cccn2Cc2ccccc21 |
| 264 to 266 °C | COc1cc(OC)c2c(=O)[nH]c(-c3ccc4[nH]nc(CO)c4c3)nc2c1 |
| 232 to 234 °C | C[C@H](NC(=O)c1c[nH]c2ncc(C3CC3)nc12)C(C)(C)CS(C)(=O)=O |
| 108 to 109 °C | Cc1c(C(C)F)nc[nH]c1=O (stereo unspecified) |
| 172 to 174 °C | O=C(O)c1cnc2sccc2c1Cl |
| 119 to 121 °C | C[C@H](O)Cc1ncc[nH]1 |
| 122 to 123 °C | N#CCOc1ccc(F)c(C(N)=O)c1F |
| 235 to 237 °C | NCc1ccc(C(=O)O)cc1[N+](=O)[O-] |
| 142 °C | C=CCn1c(C)nc2c3c(c(C(=O)OC)cc21)CCC1(Cc2ccccc2C1)N3 |
| 158 to 162 °C | Cc1ccc2c3c1OC(c1ccccc1)N3C(=O)C1CCCN1C2=O (stereo unspecified) |
| 129 to 130 °C | CCOC(=O)Cc1c(CC)nn(-c2ccccc2)c1CC |
| 271 to 272 °C | CC(C)CN1C(=O)[C@@H](CC(N)=O)O[C@H](c2ccccc2Cl)c2cc(Cl)ccc21 (relative stereo) |
| 141 to 143 °C | Nc1ccc(OCC2CN(c3ccccn3)C(=O)O2)cc1 (stereo unspecified) |
| 143 to 144 °C | CCOC(=O)c1cn(-c2ccccc2)nc1OCc1oc2cc(OCc3nc(-c4ccccc4)oc3C)ccc2c1-c1ccccc1 |
| 153 to 155 °C | Cc1c(OCC(F)(F)F)ccnc1CSc1nc2ccccc2n1NC(=O)OC(C)(C)C |
| 196 to 197 °C | CNC(=O)c1c(-c2ccccc2)oc(-c2ccccc2)cc1=O |
| 140 to 143 °C | O=C1c2cc(O)ccc2OCC1Cc1ccccc1 (stereo unspecified) |
| 90 to 91 °C | Cc1ccccc1Cn1c(=O)on(C(=O)N(c2ccc(Cl)cc2)C(C)C)c1=O |
| 68 °C | O=C(NCC(F)(F)F)C1(CCCCN2CCN(c3ccc4cccc(Cl)c4n3)CC2)c2ccccc2Oc2ccccc21 |
| > 200 °C | COc1ccc2cnc(Nc3ccc(N4CCNCC4)cn3)nc2c1C1CCCC1 |
| 166 to 169 °C | O=C(CC(c1ccccc1)c1ccccc1)N1CCC(N2Cc3ccccc3C2=O)CC1 |
| 237 to 240 °C | COc1cc(Nc2c(C#N)cnc3cc(/C=C/C(=O)O)ccc23)c(Cl)cc1Cl |
| 98 °C | CC(C)(C)OC(=O)NC(COCc1ccccc1)c1nc2c(C(F)(F)F)cccc2c(=O)o1 (stereo unspecified) |
| 212 to 213 °C | COc1cc(N2CCN([C@H]3CC[C@H](c4cn(C)c5ccc(C#N)cc54)CC3)CC2)c2ncccc2c1C |

| melting point | SMILES |
| --- | --- |
| 178 to 180 °C | NC(=O)c1ccc(NCc2cccc([N+](=O)[O-])c2)cc1 |
| 119 to 120 °C | CCCCc1ncc(CC(=O)NC(CCc2ccccc2)C(=O)O)n1Cc1ccccc1Cl (racemic) |
| 69 to 71 °C | CC(C)(CC(=O)Oc1ccccc1C(C)(C)C)NS(=O)(=O)C(F)(F)F |
| 113 to 114 °C | CCCCc1c(OC)cc(C(=O)O)nc1OC |
| 232 to 234 °C | O=c1ccccn1[C@@H]1c2ccccc2OCC[C@H]1O (relative stereo) |
| > 300 °C | NC(=O)c1ccc(-c2cc3cc(C4=NNC(=O)CC4)ccc3[nH]2)cc1 |
| 198 to 199 °C | COc1c(C=O)c2cc(Cl)c(Cl)cc2n1C1OC(CO)C(O)C1O (stereo unspecified) |
| 115 to 126 °C | Cc1ccc(CSC[C@H](NC(=O)[C@H](C)CSC(=O)c2ccccc2)C(=O)O)cc1 |
| 277 to 278 °C | CC(C)(C)[Si](C)(C)Oc1ccc(-c2ccccc2C=C2SC(=O)NC2=O)cc1C12CC3CC(CC(C3)C1)C2 |
| 183 to 185 °C | COc1ccn(-c2nc(C)c(C(=O)NCc3ccc(F)c(F)c3)s2)c(=O)c1 |
| 99 to 102 °C | COCCOCCOc1ccc2cc(C(=O)O)[nH]c2c1 |
| > 260 °C | Nc1nc(N)nc(C2CCN(Cc3ccccc3)CC2)n1 |
| > 300 °C | CCOC(=O)c1ccc2c(c1)C(=O)CC(c1ccccc1)=N2 |
| 194 to 195 °C | C[C@H]1C(=O)Nc2ccc(Cl)cc2N1C(=O)Cl |
| 103 to 105 °C | O=C1CCc2cc(Br)ccc2O1 |
| 218 to 220 °C | CC1(C)CC(NC(=O)Nc2ccccc2)CC(C)(C)N1CC#N |
| 61 to 62 °C | Cc1cc(Br)c2nc(OCC(F)(F)F)ccc2c1 |
| 245 to 248 °C | CCOC(=O)c1cnc2c3cc(N)ccc3c(C)cn2c1=O |
| 169 to 171 °C | COc1cc(N[C@H]2CC[C@H](NC3CCCC3)CC2)c(Cl)cc1C(N)=O |
| 274 °C | N#CC(=Cc1ccc(O)c(O)c1)C(=O)NCCCNC(=O)C(C#N)=Cc1ccc(O)c(O)c1 |
| 226 to 228 °C | CCCCNc1cc(C=NO)cc(S(N)(=O)=O)c1Oc1ccccc1 |
| 176 to 178 °C | CNC(=O)c1cccc(NC(=O)Cc2cccc(Br)c2)c1 |
| > 200 °C | O=C(NCc1ccn(-c2cc3c(cc2[N+](=O)[O-])[nH]c(=O)c(=O)n3C2CCCCC2)c1)Nc1ccncc1 |
| 257 to 260 °C | O=C(c1ccccc1)N(c1ccccc1)c1ccc(O)cc1 |

| SMILES | melting point |
| --- | --- |
| C#Cc1ccc2c(c1)C(c1ccccn1)=NC(C)c1c(C(=O)OCC)ncn1-2 (stereo unspecified) | 235 to 237 °C |
| O=C(Nc1nc(C(=O)NC2CN3CCC2CC3)cs1)c1ccc(OCc2ccccc2)cc1 (stereo unspecified) | 196 °C |
